Measurements from ChEMBL document CHEMBL5143523, “Construction and activity evaluation of novel benzodioxane derivatives as dual-target antifungal inhibitors” (Eur J Med Chem, 2022).
Converted amounts (≈) assume the structure as drawn. The source made the active and inactive calls. The calls are words filed in the database; no cut-off is given here.

Assays:
[1] = tested on: Candida albicans; assay: Antifungal activity against Candida albicans ATCC 10231 assessed as fungal growth inhibition measured after 72 hrs by CLSI protocol based liquid medium dilution method; assay type: functional
[2] = tested on: Pichia kudriavzevii; assay: Antifungal activity against Candida krusei ATCC 6258 assessed as fungal growth inhibition measured after 72 hrs by CLSI protocol based liquid medium dilution method; assay type: functional
[3] = tested on: Nakaseomyces glabratus; assay: Antifungal activity against Candida glabrata ATCC 0001 assessed as fungal growth inhibition measured after 72 hrs by CLSI protocol based liquid medium dilution method; assay type: functional
[4] = tested on: Candida tropicalis; assay: Antifungal activity against Candida tropicalis ATCC 1369 assessed as fungal growth inhibition measured after 72 hrs by CLSI protocol based liquid medium dilution method; assay type: functional
[5] = tested on: Aspergillus fumigatus; assay: Antifungal activity against Aspergillus fumigatus KM8001 assessed as fungal growth inhibition measured after 72 hrs by CLSI protocol based liquid medium dilution method; assay type: functional
[6] = tested on: Candida albicans; assay: Antifungal activity against fluconazole resistant Candida albicans strain 17# assessed as fungal growth inhibition measured after 72 hrs by CLSI protocol based liquid medium dilution method; assay type: functional
[7] = tested on: Candida albicans; assay: Antifungal activity against fluconazole resistant Candida albicans strain CaR assessed as fungal growth inhibition measured after 72 hrs by CLSI protocol based liquid medium dilution method; assay type: functional
[8] = tested on: Candida albicans; assay: Antifungal activity against fluconazole resistant Candida albicans strain 103 assessed as fungal growth inhibition measured after 72 hrs by CLSI protocol based liquid medium dilution method; assay type: functional
[9] = tested on: Candida albicans; assay: Antifungal activity against fluconazole resistant Candida albicans strain 901 assessed as fungal growth inhibition measured after 72 hrs by CLSI protocol based liquid medium dilution method; assay type: functional
[10] = tested on: Candida albicans; assay: Antifungal activity against fluconazole resistant Candida albicans strain 904 assessed as fungal growth inhibition measured after 72 hrs by CLSI protocol based liquid medium dilution method; assay type: functional
[11] = tested on: Candida albicans; assay: Induction of apoptosis in Candida albicans ATCC SC5314 cells assessed as live cells at 8 ug/ml incubated for 72 hrs by Annexin V-FITC/PI staining based flow cytometry method (reference value: 95.56%); assay type: functional; details: dose 8 µg/ml
[12] = tested on: Candida albicans; assay: Induction of apoptosis in Candida albicans ATCC SC5314 cells assessed as early apoptotic cells at 8 ug/ml incubated for 72 hrs by Annexin V-FITC/PI staining based flow cytometry method (reference value: 0.56%); assay type: functional; details: dose 8 µg/ml
[13] = tested on: Candida albicans; assay: Induction of apoptosis in Candida albicans ATCC SC5314 cells assessed as necrotic cells at 8 ug/ml incubated for 72 hrs by Annexin V-FITC/PI staining based flow cytometry method (reference value: 3.76%); assay type: functional; details: dose 8 µg/ml
[14] = tested on: Candida albicans; assay: Induction of apoptosis in Candida albicans ATCC SC5314 cells assessed as late apoptotic cells at 8 ug/ml incubated for 72 hrs by Annexin V-FITC/PI staining based flow cytometry method (reference value: 0.12%); assay type: functional; details: dose 8 µg/ml
[15] = tested on: Candida albicans; assay: Antifungal activity against Candida albicans ATCC SC5314 assessed as decrease in ergosterol content at 4 ug/ml incubated for 48 hrs by LC-MS analysis (reference value: 90.6%); assay type: functional; set-up: scale not given: the % may be the effect or the level left; details: dose 4 µg/ml
[16] = tested on: Candida albicans; assay: Antifungal activity against Candida albicans ATCC SC5314 assessed as change in squalene level at 4 ug/ml incubated for 48 hrs by LC-MS analysis; assay type: functional; details: dose 4 µg/ml
[17] = tested on: Candida albicans; assay: Antifungal activity against Candida albicans ATCC SC5314 assessed as change in lanosterol level at 4 ug/ml incubated for 48 hrs by LC-MS analysis (reference value: 3.7%); assay type: functional; details: dose 4 µg/ml
[18] = tested on: Candida albicans; assay: Antifungal activity against Candida albicans ATCC SC5314 assessed as change in eburicol level at 4 ug/ml incubated for 48 hrs by LC-MS analysis (reference value: 1.4%); assay type: functional; details: dose 4 µg/ml
[19] = tested on: Candida albicans; assay: Antifungal activity against Candida albicans ATCC SC5314 assessed as change in unknown sterol level at 4 ug/ml incubated for 48 hrs by LC-MS analysis (reference value: 4.3%); assay type: functional; details: dose 4 µg/ml
[20] = target: T1, Squalene epoxidase ERG1 (Candida albicans, UniProt Q92206); assay: Inhibition of SE in Candida albicans ATCC SC5314 incubated for 30 mins using squalene as substrate in presence of NADPH by spectrophotometer analysis
T1 sequence (Q92206 whole entry): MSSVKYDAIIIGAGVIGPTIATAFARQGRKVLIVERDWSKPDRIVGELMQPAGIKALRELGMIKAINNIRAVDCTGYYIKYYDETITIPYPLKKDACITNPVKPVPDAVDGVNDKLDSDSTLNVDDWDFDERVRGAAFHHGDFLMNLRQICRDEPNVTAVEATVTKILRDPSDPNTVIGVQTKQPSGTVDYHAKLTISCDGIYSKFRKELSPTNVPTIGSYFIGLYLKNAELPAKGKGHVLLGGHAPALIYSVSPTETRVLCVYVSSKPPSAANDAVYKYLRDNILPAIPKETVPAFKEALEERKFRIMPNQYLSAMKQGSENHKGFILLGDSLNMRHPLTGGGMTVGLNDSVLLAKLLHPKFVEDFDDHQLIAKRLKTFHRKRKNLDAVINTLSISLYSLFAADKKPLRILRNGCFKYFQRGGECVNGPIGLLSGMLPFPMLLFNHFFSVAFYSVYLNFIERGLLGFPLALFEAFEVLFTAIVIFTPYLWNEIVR

[21] = target: Lanosterol 14-alpha demethylase (Candida albicans (strain SC5314 / ATCC MYA-2876) (Yeast), UniProt P10613); assay: Inhibition of CYP51 in Candida albicans ATCC SC5314 incubated for 30 mins using eburicol as substrate in presence of NADPH by HPLC analysis
Sequence of Lanosterol 14-alpha demethylase (P10613 whole entry): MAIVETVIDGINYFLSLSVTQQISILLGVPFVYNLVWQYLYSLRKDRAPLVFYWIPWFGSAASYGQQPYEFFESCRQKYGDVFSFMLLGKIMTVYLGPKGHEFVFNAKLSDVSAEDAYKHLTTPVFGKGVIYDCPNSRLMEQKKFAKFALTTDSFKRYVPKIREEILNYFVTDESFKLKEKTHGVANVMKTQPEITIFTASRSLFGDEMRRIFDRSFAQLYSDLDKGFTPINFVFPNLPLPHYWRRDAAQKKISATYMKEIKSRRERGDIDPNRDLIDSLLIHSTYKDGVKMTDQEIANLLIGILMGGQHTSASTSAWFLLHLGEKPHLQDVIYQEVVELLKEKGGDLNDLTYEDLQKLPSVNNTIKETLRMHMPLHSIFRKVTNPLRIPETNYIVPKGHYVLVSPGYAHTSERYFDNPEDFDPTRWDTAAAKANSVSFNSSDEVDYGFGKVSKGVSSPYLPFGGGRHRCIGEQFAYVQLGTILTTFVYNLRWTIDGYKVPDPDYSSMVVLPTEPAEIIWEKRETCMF

[22] = Hepatotoxicity in mouse infected with Candida albicans ATCC SC5314 assessed as change in plasma AST level at 4 mg/kg, ip administered ever other day for 12 days; assay type: toxicity, organism-based; details: in vivo, 288 h, time 12 day
[23] = Hepatotoxicity in mouse infected with Candida albicans ATCC SC5314 assessed as change in plasma ALT level at 4 mg/kg, ip administered ever other day for 12 days; assay type: toxicity, organism-based; details: in vivo, 288 h, time 12 day
[24] = Nephrotoxicity in mouse infected with Candida albicans ATCC SC5314 assessed as change in plasma BUN level at 4 mg/kg, ip administered ever other day for 12 days; assay type: toxicity, organism-based; details: in vivo, 288 h, time 12 day
[25] = tested on: Candida albicans; assay: Antifungal activity against fluconazole resistant Candida albicans strain 901 assessed as decrease in fungal cell density at 4 ug/ml by fluorescence microscopy; assay type: functional, organism-based; details: dose 4.0 µg/ml
[26] = Drug uptake in fluconazole resistant Candida albicans strain 901 at 4 ug/ml by fluorescence microscopy; assay type: ADME; details: dose 4 µg/ml
[27] = tested on: Mus musculus; assay: In vivo antifungal activity against Candida albicans ATCC SC5314 infected mouse assessed as reduction in fungal infection region at 4 mg/kg, ip administered ever other day for 12 days; assay type: functional, organism-based; details: time 12.0 day
[28] = tested on: Mus musculus; assay: In vivo antifungal activity against Candida albicans ATCC SC5314 infected mouse assessed as increase in body weight at 4 mg/kg, ip administered ever other day for 12 days; assay type: functional, organism-based; details: time 12.0 day
[29] = tested on: Mus musculus; assay: In vivo antifungal activity against Candida albicans ATCC SC5314 infected mouse assessed as regular arrangement of endothelial tissue at 4 mg/kg, ip administered ever other day for 12 days by hematoxyin-eosin staining based microscopic analysis; assay type: functional, organism-based; details: time 12.0 day
[30] = tested on: Mus musculus; assay: In vivo antifungal activity against Candida albicans ATCC SC5314 infected mouse model assessed as reduction in nuclear aggregation at 4 mg/kg, ip administered ever other day for 12 days by hematoxyin-eosin staining based microscopic analysis; assay type: functional, organism-based; details: time 12.0 day
[31] = tested on: Mus musculus; assay: In vivo antifungal activity against Candida albicans ATCC SC5314 infected mouse model assessed as regular arrangement of intercellular space at 4 mg/kg, ip administered ever other day for 12 days by hematoxyin-eosin staining based microscopic analysis; assay type: functional, organism-based; details: time 12.0 day
[32] = tested on: Mus musculus; assay: In vivo antifungal activity against Candida albicans ATCC SC5314 infected mouse model assessed as disappearance of pathogenic fungi at 4 mg/kg, ip administered ever other day for 12 days by hematoxyin-eosin staining based microscopic analysis; assay type: functional, organism-based; details: time 12.0 day
[33] = Toxicity in mouse infected with Candida albicans ATCC SC5314 assessed as pathological changes in heart at 4 mg/kg, ip administered ever other day for 12 days by hematoxylin and eosin staining based histopathological analysis; assay type: organism-based; details: in vivo, 288 h, time 12 day
[34] = Toxicity in mouse infected with Candida albicans ATCC SC5314 assessed as pathological changes in liver at 4 mg/kg, ip administered ever other day for 12 days by hematoxylin and eosin staining based histopathological analysis; assay type: organism-based; details: in vivo, 288 h, time 12 day
[35] = Toxicity in mouse infected with Candida albicans ATCC SC5314 assessed as pathological changes in spleen at 4 mg/kg, ip administered ever other day for 12 days by hematoxylin and eosin staining based histopathological analysis; assay type: organism-based; details: in vivo, 288 h, time 12 day
[36] = Toxicity in mouse infected with Candida albicans ATCC SC5314 assessed as pathological changes in lung at 4 mg/kg, ip administered ever other day for 12 days by hematoxylin and eosin staining based histopathological analysis; assay type: organism-based; details: in vivo, 288 h, time 12 day
[37] = Toxicity in mouse infected with Candida albicans ATCC SC5314 assessed as pathological changes in kidney at 4 mg/kg, ip administered ever other day for 12 days by hematoxylin and eosin staining based histopathological analysis; assay type: organism-based; details: in vivo, 288 h, time 12 day
[38] = Drug uptake in fluconazole resistant Candida albicans strain 901 in presence of naftifine by fluorescence microscopy; assay type: ADME
[39] = tested on: Candida albicans; assay: Antifungal activity against fluconazole resistant Candida albicans strain 901 assessed as decrease in fungal cell density in presence naftifine of by fluorescence microscopy; assay type: functional, organism-based
[40] = tested on: Candida albicans; assay: Antifungal activity against fluconazole resistant Candida albicans strain 17# assessed as fungal growth inhibition measured after 72 hrs in presence of naftifine by CLSI protocol based liquid medium dilution method; assay type: functional
[41] = tested on: Candida albicans; assay: Antifungal activity against fluconazole resistant Candida albicans strain CaR assessed as fungal growth inhibition measured after 72 hrs in presence of naftifine by CLSI protocol based liquid medium dilution method; assay type: functional
[42] = tested on: Candida albicans; assay: Antifungal activity against fluconazole resistant Candida albicans strain 103 assessed as fungal growth inhibition measured after 72 hrs in presence of naftifine by CLSI protocol based liquid medium dilution method; assay type: functional
[43] = tested on: Candida albicans; assay: Antifungal activity against fluconazole resistant Candida albicans strain 901 assessed as fungal growth inhibition measured after 72 hrs in presence of naftifine by CLSI protocol based liquid medium dilution method; assay type: functional
[44] = tested on: Candida albicans; assay: Antifungal activity against fluconazole resistant Candida albicans strain 904 assessed as fungal growth inhibition measured after 72 hrs in presence of naftifine by CLSI protocol based liquid medium dilution method; assay type: functional

## O=C(N[C@H](Cc1ccccc1)Cn1cncn1)c1ccc2c(c1)OCCO2
[1]
  MIC50: 0.25 µg/mL (≈ 0.686 µM)
[2]
  MIC50: 0.125 µg/mL (≈ 0.343 µM)
[3]
  MIC50: 0.25 µg/mL (≈ 0.686 µM)
[4]
  MIC50: 0.125 µg/mL (≈ 0.343 µM)
[5]
  MIC50: 2 µg/mL (≈ 5.49 µM)
[6]
  MIC50: 2 µg/mL (≈ 5.49 µM)
[7]
  MIC50: 1 µg/mL (≈ 2.74 µM)
[8]
  MIC50: 1 µg/mL (≈ 2.74 µM)
[9]
  MIC50: 1 µg/mL (≈ 2.74 µM)
[10]
  MIC50: 2 µg/mL (≈ 5.49 µM)
[11]
  Activity: 52.17%
[12]
  Activity: 0.38%
[13]
  Activity: 45.83%
[14]
  Activity: 1.62%
[15]
  Activity: 24.7%
[16]
  Activity: 15.3%
[17]
  Activity: 18.5%
[18]
  Activity: 35.3%
[19]
  Activity: 6.2%
[20]
  IC50: 823 nM
[21]
  IC50: 356 nM
[22]
  Activity: 83 IU/L
[23]
  Activity: 54.6 IU/L
[24]
  Activity: 13.1 mmol/L
[25]
  Activity: Active
[26]
  Drug uptake: Active
[27]
  Activity: Active
[28]
  Activity: Active
[29]
  Activity: Active
[30]
  Activity: Active
[31]
  Activity: Active
[32]
  Activity: Active
[33]
  Activity: Non-Toxic
[34]
  Activity: Non-Toxic
[35]
  Activity: Non-Toxic
[36]
  Activity: Non-Toxic
[37]
  Activity: Non-Toxic

## Clc1ccc(COC(Cn2ccnc2)c2ccc(Cl)cc2Cl)c(Cl)c1 (centres undefined) [MICONAZOLE]
[38]
  Drug uptake: Active
[39]
  Activity: Active
[40]
  MIC50: 1 µg/mL
[41]
  MIC50: 1 µg/mL
[42]
  MIC50: 2 µg/mL
[43]
  MIC50: 2 µg/mL
[44]
  MIC50: 1 µg/mL
